# Columns and labels:
# Solubility in water = format: physicochemical
# Half life in soil = format: physicochemical
# [1] = test system: plants (broad species spectrum); test: Overall plant growth regulating effects in the Examples; format: in vivo; conditions: 1000 ppm rate
# Maize = conditions: MZ, 4000 ppm, 2-3 weeks
# Procedure: (§1) The compounds were tested for plant growth regulator activity against up to tweleve plant species for various growth effects relevant to plant growth regulation.
# (§2) Each chemical was applied at 4000 ppm (4 kg/ha in a 1000 l/ha field volume) using a tracksprayer and a SS8004E (Teejet) nozzle.
# (§3) After spray, the plants were grown in a glasshouse with 25° C. day/22° C. night temperatures and supplementary lighting was supplied when necessary (from mercury vapour lamps), to provide a 16 hour photoperiod. The exception to this were the temperate cereals, wheat and barley, which were grown in 16° C. day 13° C. night temperatures
# (§4) After 2-3 weeks in the glasshouse, depending on the time of year, the plants were visually assessed for morphological characteristics. Formulations blanks were used as controls to assess the Plants.
# Agrostis tenius = conditions: AT, 4000 ppm, 2-3 weeks
# Procedure: as §1, §2, §3, §4
# Dacrylis glomerata = conditions: DA, 4000 ppm, 2-3 weeks
# Procedure: as §1, §2, §3, §4
# Sugar beet = conditions: SB, 4000 ppm, 2-3 weeks
# Procedure: as §1, §2, §3, §4
# Vines = conditions: VN, 4000 ppm, 2-3 weeks
# Procedure: as §1, §2, §3, §4
# Radish = conditions: RA, 4000 ppm, 2-3 weeks
# Procedure: as §1, §2, §3, §4
# Lettuce = conditions: LT, 4000 ppm, 2-3 weeks
# Procedure: as §1, §2, §3, §4
Compound,solubility (Solubility in water) [µg/mL],half-life (Half life in soil) [days],retardant activity on barley and rice versus apples [1],"Retardation score (1-3) with greening (G), apical damage (A), tillering/side shooting (T) (Maize) [GA]","Retardation score (1-3) with greening (G), apical damage (A), tillering/side shooting (T) (Agrostis tenius) [G]","Retardation score (1-3) with greening (G), apical damage (A), tillering/side shooting (T) (Dacrylis glomerata) [G]","Retardation score (1-3) with greening (G), apical damage (A), tillering/side shooting (T) (Sugar beet) [G]","Retardation score (1-3) with greening (G), apical damage (A), tillering/side shooting (T) (Vines) [GT]","Retardation score (1-3) with greening (G), apical damage (A), tillering/side shooting (T) (Radish) [G]","Retardation score (1-3) with greening (G), apical damage (A), tillering/side shooting (T) (Lettuce) [G]"
"CCCCC#CC(O)(Cn1cncn1)C(C)(C)C (stereo not shown) [Compound 1, 2,2-dimethyl-3-hydroxy-3-(hex-1-yne-1-yl)-4-(1,2,4-triazol-1-yl)-butane]",1900,7 to 14,considerably more active as a cereal retardant on barley and rice than as a woody species retardant on apples,2,3,2,1,1,2,
"CC(C)CC#CC(O)(Cn1cncn1)C(C)(C)C (stereo not shown) [Compound 7, 2,2-dimethyl-3-hydroxy-3-(4-methyl-pent-1-yne-1-yl)-4-(1,2,4-triazol-1-yl)-butane]",,,,,2,1,1,,,1

# — patent US4895589A, “Heterocyclic compounds” (Imperial Chemical Industries PLC, priority 1985, dated 1990)
